Reference: patent US8048918B2, “Treatment of hyperproliferative diseases” (Vampex Limited, priority 2000, dated 2011)
Entries after “also recorded” stand apart in the source; their conditions may differ. Where no end group is shown, it is not given here.

Tests used:
[1] = test system: retinoic acid synthesis; test: RA synthesis in normal human epidermal keratinocytes; format: cell-based; settings: Carbenoxolone 6 μM, Disulfiram 15 μM or Citral 10 μM
Protocol: Protocols used are as described in as in Båvik et al., Experimental Cell research 1995:216, p. 358-362. Briefly, subcultures are grown to confluence in KGM. On day of confluence change to keratinocyte differentiation media (1.2 mM Ca^2+, KDM) with 2 μM holo-RBP+/−inhibitors ([…]; […]; 10 μM Citral; 0.2 mM 4-Methylpyrazole; 15 μM Disulfiram; 10 μM Citral; 2 mM 3-Mercaptopropionic acid; or drug vehicle alone). Cells are grown for 4 days, and cells are media are harvested.
The concentration of RA in cells and media is analysed directly by HPLC. Essentially as in “Characterisation of retinol metabolism in cultured human epidermal keratinocytes”, Randolph R. K. and Simon M., J. Biol. Chem. 268:9198-9205, 1993. The concentration of RA in cells is also analysed indirectly by Northern blot analysis of CRABPII mRNA expression in the keratinocytes, essentially as described in Elder et al. Retinoid Induction of CRABPII nRNA in Human Dermal Fibroblasts: Use as a Retinoid Bioassay, J. Investigative Dermatology 106:517-521, 1996.
The above two experiments are repeated, but with the use of normal human epithelial keratinocytes instead of psoriatic human epidermal keratinocytes.

[2] = test system: hyperproliferative psoriatic keratinocytes; test: proliferation assay (Coulter cell counter) on hyperproliferative psoriatic keratinocytes; format: cell-based, human
Description: Biopsy samples are obtained from psoriatic patients. Skin from patients with chronic plaque psoriasis are obtained with informed consent. Ethical approval has been obtained previously from The South Sheffield Regional Ethics Committee. Biopsies are all be taken from the lower back in psoriasis patients aged 40 to 60.
Remove subcutaneous tissue and some of the dermis with scissors, dissect skin into 1×2 cm pieces with a scalpel. Rinse the tissue 2-5 times in PBSA. Float skin samples on 0.6% Trypsin in PBSA (pH 7.4) ON at 4° C. (or alternatively for 20-30 min at 37° C.)
The separation of the epidermis is carefully monitored. When the first detachment of the epidermis is visible at the cut edges of the skin sample place the pieces (dermis-side down) in 100 mm Petri dishes. Irrigate with 5 ml of complete culture medium (incl. serum). Peel off the epidermis with forceps and collect it in a 50 ml centrifuge tube containing 20 ml of complete culture medium (KGM). Separate the keratinocytes from the epidermal cells by gently pipetting and sieving through a nylon gauze of 100 μm mesh. Wash the isolated epidermal cells twice in KGM by centrifugation at 100 g for 10 min, and count the total number of cells.
Cells are seeded at 37° C. in KGM medium at a density of 2500 cells/cm^2 in a 25 cm^2 cell culture flask. The medium is replaced every 48 hours and cells are passaged when confluent.
Cell Seeding and Analysis: Purchased secondary cultures or primary cultures (from donor skin) are seeded at 3500 cells/cm^2 in K-SFM 25 cm^2 tissue culture flasks. The medium is changed (5 ml per flask) the day after seeding and every other day thereafter. At 70-80% confluence the cells are subcultured by seeding 3500 cells per well in 24 well cell culture plates, each well containing 500 μl of K-SFM. One well plate is seeded for each treatment. After allowing one day for settling the cells are switched to experimental medium (500 μl per well). Stock solutions of additions are as before. Experimental treatments are as follows:
The medium is replaced every other day. Cells are harvested by trypsinisation. 500 μl Trypsin/EDTA is added to each well to be harvested and then aspirated off. The well plates are incubated for 5-6 min at 37° C. 500 μl PBS is added to the wells and the cells are resuspended. The cell suspension is added to 20 ml Isoton solution in a Coulter counter “Accuvette” and the cells are counted. On each harvest, 3 wells of cells are counted for each treatment and 3 counts were made for each well.
Cell number is calculated as follows: Coulter Counter removes 500 μl of 20 ml sample ( 1/40). Multiply cell count by 40 to obtain cell number in cup, this equals the total number of cells in one well (approximately, as ˜10% taken out for viability test). […]

Row | Compound | retinoic acid synthesis [1] | effect on retinol/retinoic acid-induced keratinocyte proliferation (cell numbers) ([2]; RA synthesis inhibitors (Disulfiram 15 μM, Citral 10 μM, Carbenoxolone 12 μM), 1.2 mM Ca2+, 2 μM ROL, FIG. 10) | effect on RBP-increased proliferation ([2]; peptides 6 μM, Ca2+ 1.2 mM, RBP 0.6 μM)
1 | CC(C)=CCCC(C)=CC=O [Citral, 3,7-dimethyl-2,6-octadienal] | inhibited | – | –
2 | CC1(C)[C@@H](OC(=O)CCC(=O)O)CC[C@]2(C)[C@H]3C(=O)C=C4[C@@H]5C[C@@](C)(C(=O)O)CC[C@]5(C)CC[C@@]4(C)[C@]3(C)CC[C@@H]12 [Carbenoxolone] | inhibited | particularly marked effect | –
3 | GRVRLLNNWDVCA | – | – | reversed; also recorded: reduces proliferation
